The subject of one data set is EMT-6 mammary tumors. Nature of the data set: Experiment II: boron concentrations in tissues, mice bearing EMT-6 tumors (Table 9). It counts as in vivo, BALB/c mice. The settings on record: 90 hrs after last ip injection; NiDPE 78 (6 ip), VCDP 245 μg/gbw (12 ip). Here is the method: Lipophilic porphyrins 1, 2, 4, 5, and 6 were injected as emulsions in either 3% or 9% CRM and either 6% or 18% PRG with saline as previously described in Example 2 above. Water soluble porphyrins 3 and 7 were dissolved in saline. BPA was solubilized as a fructose complex.
Female BALB/c mice (from Taconic Farms, Germantown, N.Y.) (20-25 g) were implanted with either KHJJ or EMT-6 tumors according to the procedure described in Example 3A above.
Under deep halothane anesthesia leading to euthanasia, right ventricular blood was collected in Microtainer (Becton-Dickinson, Rutherford, N.J.) tubes containing EDTA for hematological analyses and boron assays of whole blood and in Microtainer™ tubes containing lithium heparin for chemical analyses and enzyme assays of blood plasma. Tumor, brain, fat, muscle, and liver tissues were sampled at necropsy for boron analyses.
Hematological, chemical and enzymatic tests were carried out as described in Example 3 above. Nonparametric statistical analyses were carried out using the Wilcoxon Two-Sample Test in accordance with procedures described in Slatkin, D.N., 1995. Boron analyses were conducted in accordance with the procedure described in Example 3 above. Fat and liver tissues were assayed for ^10 B by prompt-gamma spectroscopy as described in Fairchild, et al., 1986. These measurements were multiplied by 5.0 to give total boron concentrations due to the use of boron of natural isotope abundance in the syntheses of all boronated porphyrins reported.

The nature of data set [1]: Overall ranking of boronated porphyrins for BNCT guided by biodistribution and toxicity tests in mice (Table 11). The settings on record: rank; higher numerical value = better performance. Here is the method:
The higher the numerical value, the better the performance of that porphyrin for that property. […] Although VCDP was able to deliver therapeutic amounts of boron to tumor, such side effects such as thrombocytopenia, which was induced within 3 hours after injections, weight loss, and the altered hepatic enzymes were serious enough to rank VCDP considerably behind the TCP's and the TCP-H's (Miura et al., 1992). In addition, the 80-hour drug administration period and the 90-hour blood clearance period are of great inconvenience. Moreover, this 4-day difference between the VCDP and the TCP (or TCP-H) dose and clearance schedules would translate into a 4-day greater delay between initiation of drug administration and neutron irradiation which would allow greater tumor growth to occur.
[…]
biodistribution and toxicity tests in mice. An asterisk indicates

The test system of another data set is EMT-6 tumors. Nature of the data set: Boron concentrations arithmetically normalized to constant dose, mice bearing EMT-6 tumors (FIG. 3). It counts as in vivo, BALB/c mice. The settings on record: normalized porphyrin dose (160 μg porphyrin/gbw). Here is the method: Since the porphyrins were not given at the same dose, the boron concentrations in tumor, blood, and brain were arithmetically normalized to a total dose of 160 μg porphyrin/gbw for comparison in FIG. 3. Since each porphyrin has a different percentage of boron per unit mass, tumor boron concentrations were also arithmetically normalized to a total dose of 36.5 μg B/gbw, also shown in FIG. 3.

For data set [2] the following is noted: cited from earlier work.

These results are taken from patent publication US5877165A, “Boronated porhyrins and methods for their use” (priority 1997, dated 1999).

Some results are limits rather than exact numbers.

Regarding “3,8-divinyl-nido-carboranyldeuteroporphyrin [VCDP]”, in the data set on EMT-6 mammary tumors, the “Boron concentration, Blood” value is 7 (4.3-13) μB/g; the “Boron concentration, Brain” value was 8.1 (4.9-16.2) μB/g; the “Boron concentration, Tumor” value is listed as 53 (30-106) μB/g. Besides, in data set [1], the “Drug tolerance/deliverable boron (ranking)” value was found to be 2, the “Lipophilicity (ranking)” value was 0, the “Tumor uptake (normalized) (ranking)” value was found to be 3 and the “Tumor:Blood (ranking)” value turned out to be 2. Also, the “tumor boron uptake, normalized” value with EMT-6 tumors was found to be 38. Further, the “toxicity vs control, in words” value in data set [2] (130 μg VCDP/gbw over 32 hr, 90 hrs after last injection (Miura et al., 1992)) is “no differences from control groups given a bicarbonate solution, although CPK was slightly depressed”. In addition, in data set [2] (Miura et al., 1992), the “time to thrombocytopenia after injections” value was no more than 3 h. Further, the “dose per injection that keeps mortality below 10%” value in data set [2] (per injection, mice) is given as 22 μg VCDP/gbw.
